According to ChEMBL document CHEMBL4613323, “Factor H-Inspired Design of Peptide Biomarkers of the Complement C3d Protein” (ACS Med Chem Lett, 2020):

Molecular target: Complement C3 (Homo sapiens, UniProt P01024)
Test: Binding affinity to recombinant human C3d assessed as dissociation constant incubated for 5 mins by microscale thermophoresis assay

Sequence of Complement C3 (P01024 23-667 limits assumed): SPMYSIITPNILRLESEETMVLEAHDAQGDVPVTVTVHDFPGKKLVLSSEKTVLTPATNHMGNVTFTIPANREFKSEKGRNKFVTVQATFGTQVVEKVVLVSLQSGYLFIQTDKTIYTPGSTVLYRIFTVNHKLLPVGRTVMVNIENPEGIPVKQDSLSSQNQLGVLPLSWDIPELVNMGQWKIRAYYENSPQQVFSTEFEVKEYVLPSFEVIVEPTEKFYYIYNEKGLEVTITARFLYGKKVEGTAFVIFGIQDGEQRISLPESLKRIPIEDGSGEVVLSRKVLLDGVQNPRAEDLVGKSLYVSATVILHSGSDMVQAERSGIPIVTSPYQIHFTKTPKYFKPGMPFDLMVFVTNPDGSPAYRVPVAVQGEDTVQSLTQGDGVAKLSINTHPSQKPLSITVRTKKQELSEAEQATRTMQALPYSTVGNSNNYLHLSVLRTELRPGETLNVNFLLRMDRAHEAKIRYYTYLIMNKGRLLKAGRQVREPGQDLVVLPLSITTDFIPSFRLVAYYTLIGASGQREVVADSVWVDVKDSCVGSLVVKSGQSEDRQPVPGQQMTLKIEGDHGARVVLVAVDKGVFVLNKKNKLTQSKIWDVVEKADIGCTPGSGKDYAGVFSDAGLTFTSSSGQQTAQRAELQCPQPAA
Sequence of Complement C3 (P01024 672-1663 limits assumed): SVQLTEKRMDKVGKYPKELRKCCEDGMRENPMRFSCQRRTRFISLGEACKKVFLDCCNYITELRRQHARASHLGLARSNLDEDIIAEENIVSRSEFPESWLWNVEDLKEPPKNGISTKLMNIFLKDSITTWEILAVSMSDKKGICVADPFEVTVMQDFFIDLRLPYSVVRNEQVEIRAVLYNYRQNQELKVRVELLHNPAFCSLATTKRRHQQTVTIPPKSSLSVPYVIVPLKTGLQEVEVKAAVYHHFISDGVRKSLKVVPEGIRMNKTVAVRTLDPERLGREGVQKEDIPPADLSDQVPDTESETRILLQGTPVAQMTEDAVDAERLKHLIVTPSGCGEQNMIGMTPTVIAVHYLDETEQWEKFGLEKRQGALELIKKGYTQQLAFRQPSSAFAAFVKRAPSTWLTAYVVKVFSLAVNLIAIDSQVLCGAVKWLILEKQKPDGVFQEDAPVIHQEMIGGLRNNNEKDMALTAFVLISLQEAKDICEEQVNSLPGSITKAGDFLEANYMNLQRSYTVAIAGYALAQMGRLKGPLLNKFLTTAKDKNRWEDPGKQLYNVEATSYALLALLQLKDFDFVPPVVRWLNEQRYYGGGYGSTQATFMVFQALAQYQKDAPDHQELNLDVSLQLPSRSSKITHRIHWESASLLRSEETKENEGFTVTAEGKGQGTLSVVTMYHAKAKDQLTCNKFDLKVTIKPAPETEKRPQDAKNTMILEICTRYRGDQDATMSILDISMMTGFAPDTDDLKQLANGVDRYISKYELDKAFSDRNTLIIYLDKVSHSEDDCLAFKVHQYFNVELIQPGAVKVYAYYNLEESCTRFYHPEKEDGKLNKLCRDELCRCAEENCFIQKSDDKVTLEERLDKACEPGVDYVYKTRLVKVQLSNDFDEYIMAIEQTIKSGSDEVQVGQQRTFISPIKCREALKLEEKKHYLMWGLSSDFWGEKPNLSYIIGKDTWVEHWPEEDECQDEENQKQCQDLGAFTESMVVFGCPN

CC(=O)NCC(=O)N[C@H]1CSSC[C@@H](C(=O)NCC(N)=O)NC(=O)[C@H](CCCNC(=N)N)NC(=O)[C@H](Cc2ccc(O)cc2)NC(=O)CNC(=O)[C@H](CCCNC(=N)N)NC(=O)[C@H](CCCCN)NC1=O (stereo in doubt; form 2)
Kd: 61.6 µM
